This is an account of results in patent US20160096826A1, “CO-CRYSTALS OF LAPATINIB MONOACID SALTS” (priority 2014, published 2016).

In general, bioavailability refers to the share of a dose that reaches the circulation, judged against a reference dose that is usually intravenous. As usually defined, the MRT last is the average time that molecules of a dose stay in the body. A word on the Cmax: it is the maximum level reached in the sampled fluid or tissue. A word on the Tmax: it is the time from dosing to the highest level. As a reminder, the AUC is the area under the concentration-time curve, a measure of exposure. As a reminder, the MRT inf is the average time that molecules of a dose stay in the body. One may read the AUC(0-t) as the area under the concentration-time curve up to a stated or last time point. In general, CL/F refers to the apparent clearance, not corrected for the fraction that reaches the circulation. In general, Vd/F refers to the apparent distribution volume after extravascular dosing. In general, half-life refers to how long it takes for the measured level to halve. As usually defined, the pKa is the negative logarithm of the acid dissociation constant.

Structures can show the parent of a compound that is named as a salt. Where two headings read alike, the source gives them in different places.

The nature of data set [1]: in vivo. The following applies: male, Wistar, rat, male rats; for bioavailability: F (absolute bioavailability), oral 30 mg/kg AUCt compared with iv 10 mg/kg; for MRT last: MRTt (mean residence time); for AUC(0-t): AUCt; for Cmax: suspension in hydroxypropylmethylcellulose:Tween 80 in WFI, plasma Lapatinib; for Vd/F: Vz/F.
Protocol: (§1) For the oral administration, the compounds were suspended in hydroxypropylmethylcellulose:Tween 80 (0.5%:0.1%) in WFI to reach a concentration of 3 mg parent compound/mL in all cases.
(§2) A bioanalytical UPLC®-MS/MS method was characterized and allowed the determination of the Lapatinib in rat plasma; the precision and accuracy of the QC samples was appropriate according to international guidelines.
(§3) A non-compartmental pharmacokinetic analysis was carried out with mean plasma concentration-time curves using WinNonlin® Professional Version 6.3 (Phoenix Version 1.3, Pharsight Corporation):
(§4) For the preparation of the intravenous solution and the oral suspensions, the correction factor and the purity were applied for all compounds. Blood samples were collected from all animals at all scheduled time points.
(§5) The study samples were analyzed according to the following UPLC®-MS/MS method:
The conditions of data set [2]: male rats; for Cmax: suspension in hydroxypropylmethylcellulose:Tween 80 in WFI, plasma Lapatinib.
Protocol: as §1, §2, §3, §4, §5
Data set [3] in a line: Stability in water suspension followed by XRPD. Type of data set: physicochemical. The following applies: 40 volumes of water, room temperature, XRPD at 1, 4 and 24 hours. On the procedure: The three suspensions were stirred at room temperature in 40 volumes of water and the transformation of the product was followed by XRPD at 1 hour, 4 hours and 24 hours.
The nature of data set [4]: Stability at 74% RH at 40° C. (XRPD).
Data set [5] in a line: Model-based PK analysis (NONMEM), oral administration, two parallel input processes. To be noted: for AUC0INF / Absolute Bioavail. / Cmax / MRTINF / Tmax: derived from PK modelling, oral.
Description: (§6) Therefore, the absorption process was described by two parallel inputs processes. The first input characterized a fast-release component (with a ka1 rate of absorption) while the second input characterized a delayed release of the drug (with a ka2 rate of absorption). The fraction of the oral dose associated with the first absorption component was estimated by the F parameter, while the remaining fraction of the drug (1-F) was assumed to be released in the second absorption process. The F fraction of the dose was immediately release (lag1) while the release of the remaining (1-F) fraction occurred with an estimated lag time (lag2).
(§7) The disposition and elimination PK parameters of Lapatinib (k12, k21, k13, k31, and kel) for the different oral formulations were fixed to the ones estimated in the IV model due to the limited PK samples available for a proper characterization of these parameters after oral administration.
Data set [6] can be described thus: in vivo. The following applies: Wistar, rat, plasma, iv, 10 mg/kg.
Data set [7] in a line: in vivo. To be noted: Wistar, rat, plasma, po, 30 mg/kg.
Description: as §6, §7
Data set [8] in a line: Model-based PK analysis (NONMEM), IV administration, three-compartment model. The following applies: Group 1.
The conditions of data set [9]: Tyverb EPAR; cited from earlier work.
Data set [10] in a line: Intravenous bolus pharmacokinetics, non-compartmental analysis, 10 mg Lapatinib/kg. The data set is classed as in vivo. To be noted: Wistar, rat, plasma, male rats.
Protocol: as §3
The conditions of data set [11]: coformer acid; cited from earlier work.
The conditions of data set [12]: cited from earlier work.
Data set [13] can be described thus: pKa values for the FDA co-crystal criterion. To be noted: approximated by comparison with Gefitinib and Erlotinib; read-out: pKa of the second less basic function. Type of data set: physicochemical. From the text: As further confirmation that the products of the present inventions are co-crystals and not simply salts, the criterion adopted by the FDA Guidelines of April 2013 (see below) is here reported: the active ingredient-excipient complex should be classified as co-crystal if ΔpKa of the two species is <1.

[14] abbreviates: listed as co-crystal Lapatinib monotosylate:caprylic acid (1:2).
Setting [15] is: plasma, po, 30 mg/kg, oral 30 mg/kg.
Setting [16] is: listed as co-crystal Lapatinib monotosylate:caproic acid (1:2).
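For Cmax/AUCt (apparent absorption rate) in this document: parent drug in plasma quantified by UPLC-MS/MS, parameters derived by non-compartmental analysis of mean concentration-time curves, oral suspension at 3 mg/mL.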
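For F (absolute bioavailability) in this document: parent drug in plasma quantified by UPLC-MS/MS, parameters derived by non-compartmental analysis of mean concentration-time curves, oral suspension at 3 mg/mL.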
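For F in this document: parent drug in plasma quantified by UPLC-MS/MS, parameters derived by non-compartmental analysis of mean concentration-time curves, oral suspension at 3 mg/mL.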
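For t1/2app (apparent terminal elimination half-life) in this document: parent drug in plasma quantified by UPLC-MS/MS, parameters derived by non-compartmental analysis of mean concentration-time curves, oral suspension at 3 mg/mL.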

In turn, `CS(=O)(=O)CCNCc1ccc(-c2ccc3ncnc(Nc4ccc(OCc5cccc(F)c5)c(Cl)c4)c3c2)o1` [Form II, Lapatinib monotosylate:caprylic acid (1:2)] registered a bioavailability in “in vivo [1]” (in vivo, 30 mg Lapatinib/kg) of 50.7%. Besides, the MRT last in “in vivo [1]” (in vivo, po, 30 mg/kg, oral 30 mg/kg) was 4.67 h. Also, in data set [2] (oral 30 mg/kg, 30 mg/kg), the Cmax amounted to 2814 ng/mL, the AUCt is 20778 ng·h/mL and the Tmax was found to be 3 h. For the same molecule, in [3], the “stability in water suspension (XRPD finding)” value is “recovering pure Form II after 24 hours”. In [4], the “exposure time after which very small amounts of Lapatinib monotosylate Form M1 were detected by XRPD” value was found to be 60 days and the “Lapatinib monotosylate observed in the co-crystal after 23 days” value is “only traces”. In [5] (setting [14]), the AUC0INF was determined as 16700 ng·h/mL, the “Absolute Bioavail.” value amounted to 39.5%, the Cmax is reported as 2813.5 ng/mL and the MRTINF turned out to be 4.67 h. The time to peak (Tmax) in data set [5] (setting [14]) turned out to be 3 h.
`CS(=O)(=O)CCNCc1ccc(-c2ccc3ncnc(Nc4ccc(OCc5cccc(F)c5)c(Cl)c4)c3c2)o1.Cc1ccc(S(=O)(=O)O)cc1` [Lapatinib ditosylate monohydrate, N-{3-chloro-4-[(3-fluorobenzyl)oxy]phenyl}-6-[5-({[2-(methylsulphonyl)ethyl]amino}methyl)furan-2-yl]quinazolin-4-amine bis(4-methylbenzenesulphonate)monohydrate, reference compound]: in “in vivo [6]”, the AUC amounted to 12300 ng·h/mL and the MRT inf was 35.9 h. Further, in “in vivo [7]”, the AUC came out at 18400 ng·h/mL, the Cmax amounted to 3510 ng/mL, the MRT inf came to 4.31 h and the time to peak (Tmax) amounted to 2 h. The molecule also yielded a bioavailability in “in vivo [1]” (plasma, oral, 30 mg Lapatinib/kg) of 57.5%. In the data set “in vivo [1]” (setting [15]), this molecule showed an AUC(0-t) of 23600 ng·h/mL, a CL/F of 21.2 mL/min/kg, a Cmax of 3520 ng/mL and an MRT last of 4.28 h. This molecule also came in with a Vd/F in the data set “in vivo [1]” (setting [15]) of 4.38 L/kg. In addition, the half-life in the data set “in vivo [1]” (plasma, po, 30 mg/kg, t1/2app (apparent terminal elimination half-life), oral 30 mg/kg) was 2.39 h. For the same molecule, in data set [8] (IV model), the k12 is given as 0.616, the k13 amounted to 3.14, the k21 was determined as 0.00202 and the k31 is recorded as 1.47. Moreover, in data set [8] (IV model), the kel amounted to 1.6 and the v is on record as 0.358. In data set [8] (derived from PK modelling, IV), this molecule returned an AUC0INF of 14100 ng·h/mL and a T12 of 176 h. The “Cmax/AUCt (apparent absorption rate)” value in data set [2] (oral 30 mg/kg) amounted to 0.149 h⁻¹. Moreover, in data set [5], the AUC0INF was 18400 ng·h/mL and the “Absolute Bioavail.” value stood at 43.5%. This molecule registered a lag1 in [5] (oral model, first (immediate) release) of 0. In data set [9], the hygroscopicity result is “non-hygroscopic” and the “solubility in aqueous media” value is given as “practically insoluble in aqueous media”. The C0 in data set [10] (iv bolus 10 mg/kg in DMSO:PEG:WFI (10:40:50), read-out: C0 (extrapolated concentration at time 0)) was 20200 ng/mL. For the same molecule, in data set [10] (iv bolus 10 mg/kg), the AUC(0-t) came to 13700 ng·h/mL and the MRT last is 1.54 h.
As to `CCCCCCCC(=O)O` [caprylic acid], the pKa in data set [11] is 4.91.
For `CCCCCC(=O)O` [caproic acid], in data set [11], the pKa was 4.8.
For the molecule `CS(=O)(=O)CCNCc1ccc(-c2ccc3ncnc(Nc4ccc(OCc5cccc(F)c5)c(Cl)c4)c3c2)o1` [Lapatinib], the “increase of bioavailability when co-administered with a high fat meal” value in data set [12] (compared with fasting conditions, Ratain and Cohen) is on record as 325%. Further, the “drug class (solubility/permeability)” value in data set [12] (low solubility-good permeability, Custodio et al.) is given as “Class II”. The pKa in data set [13] was around 5.4.
As to `CS(=O)(=O)CCNCc1ccc(-c2ccc3ncnc(Nc4ccc(OCc5cccc(F)c5)c(Cl)c4)c3c2)o1` [Form III, Lapatinib monohydrochloride:adipic acid (1:1)], the “F (absolute bioavailability)” value in [2] (oral 30 mg/kg AUCt compared with iv 10 mg/kg) was 44.98%. In data set [2] (oral 30 mg/kg, 30 mg/kg), the Cmax was found to be 2567 ng/mL, the AUCt came out at 18433 ng·h/mL, the Tmax came to 3 h and the “t1/2app (apparent terminal elimination half-life)” value came to 3.13 h.
Consider `CS(=O)(=O)CCNCc1ccc(-c2ccc3ncnc(Nc4ccc(OCc5cccc(F)c5)c(Cl)c4)c3c2)o1` [Form I, Lapatinib monotosylate:caproic acid (1:2)], for which, in “in vivo [1]” (setting [15]), the AUC(0-t) stood at 13300 ng·h/mL, the CL/F was 33.2 mL/min/kg, the Cmax turned out to be 3170 ng/mL and the Vd/F was 6.83 L/kg. In the data set “in vivo [1]” (plasma, po, 30 mg/kg), this molecule showed a bioavailability of 32.4%. The Tmax in the data set “in vivo [1]” (plasma, po, 30 mg/kg, tmax, oral 30 mg/kg) stood at 2 h. Further, in data set [4], the “exposure time after which very small amounts of Lapatinib monotosylate Form M1 were detected by XRPD” value came out at 23 days and the “Lapatinib monotosylate observed in the co-crystal after 23 days” value is on record as “a little amount”. In data set [5] (setting [16]), the AUC0INF was found to be 15000 ng·h/mL, the “Absolute Bioavail.” value was 35.5%, the Cmax worked out at 3018.6 ng/mL and the MRTINF was 3.85 h. The Tmax in [5] (setting [16]) is listed as 1.6 h.
